Article PMC4982760, “Small-molecule inhibitors identify the RAD52-ssDNA interaction as critical for recovery from replication stress and for survival of BRCA2 deficient cells” (eLife, 2016)
Structures can show the parent of a compound that is named as a salt. Where two headings read alike, the source gives them in different places.

How the values were obtained:
RAD52-ssDNA interaction = biological target: T1, RAD52-ssDNA interaction (Homo sapiens, UniProt P43351); test: FRET-based ssDNA binding and wrapping assay (RAD52-Cy3-dT30-Cy5 complex); details: for IC50 range for inhibition of ssDNA binding, in words / FRET value at saturation: 1 nM Cy3-dT30-Cy5, 8 nM RAD52; for FRET value at saturation: ssDNA
T1 construct: made in house
T1 sequence (P43351 1-418): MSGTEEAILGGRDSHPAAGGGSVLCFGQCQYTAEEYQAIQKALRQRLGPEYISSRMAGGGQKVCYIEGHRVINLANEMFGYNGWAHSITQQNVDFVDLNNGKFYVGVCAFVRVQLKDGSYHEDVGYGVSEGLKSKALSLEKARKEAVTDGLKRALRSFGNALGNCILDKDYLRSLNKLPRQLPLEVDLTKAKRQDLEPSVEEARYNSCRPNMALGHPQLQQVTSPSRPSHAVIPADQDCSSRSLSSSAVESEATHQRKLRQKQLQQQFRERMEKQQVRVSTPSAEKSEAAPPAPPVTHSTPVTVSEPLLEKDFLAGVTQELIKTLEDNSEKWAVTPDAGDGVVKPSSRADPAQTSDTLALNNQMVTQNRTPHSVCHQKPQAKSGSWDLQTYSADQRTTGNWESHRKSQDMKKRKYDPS
Procedure: We titrated increasing amounts of each compound into a cuvette containing preformed stoichiometric RAD52-Cy3-dT30-Cy5 complexes (1 nM Cy3-dT30-Cy5 and 8 nM RAD52). […] At each concentration of the compound, the FRET signal was adjusted for the change in Cy3 and Cy5 fluorescence in the presence of the compound, but in the absence of protein.
FRET-based ssDNA binding, dsDNA binding, and annealing assays were carried out as previously described ([Grimme et al., 2010]; [Grimme and Spies, 2011]) using Cary Eclipse spectrofluorimeter (Varian) at 25°C in buffer containing 30 mM Tris-Acetate pH7.5, 1 mM DTT, and 0.1 mg/mL BSA. Cy3 dye was excited at 530 nm and its emission was monitored at 565 nm. Emission of Cy5 acceptor fluorophore excited through the energy transfer from Cy3 donor is monitored at 660 nm simultaneously with emission of Cy3 dye. Both the excitation and the emission slit widths were set to 10 nm.
All experiments were performed in triplicates, and the data are shown as averages and standard deviations for three independent measurements. To remove possible experimental artifacts associated with chromogenic or fluorogenic compounds, as well as with the compounds that may quench or enhance Cy3 or Cy5 fluorescence, we also performed control titrations whereby we titrated each compound into 1 nM Cy3-dT30-Cy5 in the absence of RAD52. For each compound concentration we subtracted the difference in the FRET signal in the presence and absence of the compound from the respective FRET signal in the presence of RAD52. The FRET signal corrected for the compound fluorescence was calculated using the equation: FRETapp=4.2∗ICy5/4.2∗ICy5+ 1.7∗ICy3
as previously described ([Grimme et al., 2010]; [Grimme and Spies, 2011]) and plotted as a function of compound concentration and fitted to the following inhibition model” FRET([small molecule])=FRET0−FRETmin/1+10^(LogIC50−Log([small molecule])∗HillSlope),
where FRET0 is the initial FRET value of the RAD52-ssDNA complex in the absence of the compound and FRETmin is the FRET value at complete inhibition. FRET values were calculated as an average of three or more independent annealing reactions plotted against the concentration of the compound. Inhibition of the RAD52-dsDNA interaction was assayed in a similar experiments, except the stoichiometric complexes containing 1 nM molecules of Cy3-Oligo28-Cy5 duplex DNA and 10 nM RAD52.

[1] = biological target: T2, RAD52-mediated ssDNA annealing (Homo sapiens, UniProt P43351); test: FRET-based RAD52-mediated ssDNA annealing assay; format: biochemical
T2 construct: made in house
T2 sequence (P43351 1-418): T1 sequence (P43351 1-418)
Source text: To determine how the selected compounds affect the ssDNA annealing function of RAD52 we performed FRET-based annealing assays ([Grimme et al., 2010]; [Grimme and Spies, 2011]). These assays utilize two complementary single stranded 28-nucleotide-long substrates, which contain either Cy3 (T-28) or Cy5 (P-28) incorporated into the middle of the respective DNA strand. When the substrates are annealed by RAD52, the Cy3 and Cy5 dyes are separated by 3 base pairs and yield a high FRET signal (Figure 2—figure supplement 2). […] The annealing reactions were initiated by mixing two half reactions and observing the change in FRET over time in the presence of varying concentrations of small molecules. An increasing FRET value over time indicates the formation of the dsDNA duplex which brings the two dyes in close proximity (Figure 2—figure supplement 2). Fitting the annealing data to a double exponential allowed us to calculate and compare the final extent of annealing at varying concentrations of each compound compared to RAD52 alone. We plotted the final extent of annealing vs the concentration of the compound and calculated an IC50 of annealing inhibition. […] At the stoichiometric RAD52: dsDNA ratio, (1 nM dsDNA: 10 nM RAD52) the dsDNA is bent upon RAD52 binding, which allows us to distinguish the RAD52-bound and free dsDNA (Figure 2—figure supplement 1).
Annealing of complementary oligonucleotides by RAD52 was monitored under identical conditions as the binding assays described above. For each assay, the reaction master mixture containing 8 nM RAD52 protein in the presence and absence of the compounds at varying concentrations was prepared at room temperature and divided into two half reactions. Following baseline buffer and protein measurements, 0.5 nM of T-28 ssDNA substrate was added to the reaction cuvette and the signal was allowed to stabilize. The annealing reaction was initiated upon addition of the second half-reaction pre-incubated with 0.5 nM P-28 ssDNA substrate. The fluorescence of Cy3 and Cy5 were measured simultaneously over the reaction time course (500 s). FRETapp values were calculated as an average of three or more independent annealing reactions plotted against time (s). The average FRET values were fitted to a double exponential to calculate the final extent of annealing using Graphpad Prism4 software. The calculated annealing extent was plotted as a function of compound concentration and fitted to the same model as we used to determine IC50 values for the inhibition of DNA annealing.

[2] = 1 nM Cy3-dT30-Cy5, 8 nM RAD52, 25°C, read-out: IC50 (DNA binding), ssDNA
[3] = 8 nM RAD52, 0.5 nM T-28 and 0.5 nM P-28, read-out: IC50 (Annealing extent), ssDNA
[4] = read-out: IC50 (Annealing extent), ssDNA, 8 nM RAD52, 0.5 nM T-28 and 0.5 nM P-28

SMILES	IC50 range for inhibition of ssDNA binding, in words (RAD52-ssDNA interaction)	IC50 (RAD52-ssDNA interaction; [2]) [µM]	FRET value at saturation (RAD52-ssDNA interaction)	IC50 [1, 3] [µM]	IC50 (RAD52-ssDNA interaction) [µM]	IC50 [1, 4] [µM]	IC50 [1] [µM]
C=C1c2cccc(O)c2C(=O)C2=C(O)[C@]3(O)C(=O)C(C(N)=O)=C(O)[C@@H](N(C)C)[C@@H]3[C@@H](O)[C@H]12 [Compound 3, Methacycline Hydrochloride]	micro-molar range	2 ± 0.17	0.47 ± 0.01	3.8 ± 0.2			
CN(C)[C@@H]1C(O)=C(C(=O)NCN2CCCC2)C(=O)[C@@]2(O)C(O)=C3C(=O)c4c(O)cccc4[C@@](C)(O)[C@H]3C[C@@H]12 [Compound 4, Rolitetracycline]	mid micro-molar range		0.56 ± 0.04		29 ± 8.2	> 100	
O=C(O[C@@H]1Cc2c(O)cc(O)cc2O[C@@H]1c1ccc(O)c(O)c1)c1cc(O)c(O)c(O)c1 [Compound 5, (−)−Epicatechin gallate]	nano-molar range	0.255 ± 0.016	0.41 ± 0.004	20 ± 0.7			
NCCc1cc(O)c(O)cc1O [Compound 14, Oxidopamine]	nano-molar range		0.50 ± 0.01		0.779 ± 0.051	> 100	
CC1(C)C(=O)C=C[C@@]2(C)C1=C(O)C(=O)[C@]1(C)[C@@H]2CC[C@@]2(C)[C@H](c3ccoc3)C[C@H]3O[C@]321 [Compound 17, Cedrelone]	high micro-molar range	> 300		> 100			
O=c1c(O)c(-c2ccc(O)c(O)c2)oc2c(O)c(O)cc(O)c12 [Compound 19, Gossypetin]	nano-molar range		0.49 ± 0.01		0.913 ± 0.058		6 ± 2.3

More lines, main results first:

IC50 range for inhibition of ssDNA binding, in words (RAD52-ssDNA interaction)	IC50 (RAD52-ssDNA interaction; [2]) [µM]	FRET value at saturation (RAD52-ssDNA interaction)	IC50 [1, 3] [µM]	SMILES	IC50 (RAD52-ssDNA interaction) [µM]	IC50 [1, 4] [µM]	IC50 [1] [µM]
micro-molar range	1.45 ± 0.11	0.51 ± 0.01	> 100	Oc1cc(O)c2c(c1)O[C@H](c1ccc(O)c(O)c1)[C@H](O)C2 [Compound 7, (−)−Epicatechin]			
nano-molar range	0.563 ± 0.04	0.51 ± 0.01	5.6 ± 0.6	O=C1c2ccc(O)c(O)c2C(=O)c2c(O)ccc(O)c21 [Compound 15, Quinalizarin]			
		0.50 ± 0.01		COc1cc(N)c(Cl)cc1C(=O)NC1CCN(CCCOc2ccc(F)cc2)CC1OC (centres unmarked) [Compound 16, Cisapride Monohydrate]			
high micro-molar range	> 800		> 100	C[C@H]1[C@H](C)CC[C@]2(C(=O)O)CC[C@]3(C)C(=CC[C@@H]4[C@@]5(C)C[C@@H](O)[C@H](O)[C@@](C)(CO)[C@@H]5CC[C@]43C)[C@H]12 [Compound 18, Asiatic Acid]			
